Data from PubChem BioAssay AID1918933 (Molecular Pharmacology Branch, DTP, NCI, 2023).
Where “and” joins values, the source holds several entries; their conditions need not be identical. Equal entries are not always repeated.

System: 186277-243-T-J2-PDC complex spheroid viability
Experiment: Anticancer human tumor 186277-243-T-J2-PDC patient-derived colon adenocarcinoma cell line growth inhibition
Conditions: for viability, T/C: stronger effect = lower value
Procedure, shortened: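 Drug combinations with the LSD1 inhibitor iadademstat tested on tumor cells co-cultured as spheroids with endothelial cells and mesenchymal stem cells. Concentrations descended in half-log increments from clinical Cmax or 10 microM.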

[1] = curve of first compound, second compound 0.1 µM
[2] = curve of first compound, second compound 0.316 µM
[3] = curve of first compound, second compound 1 µM
[4] = curve of first compound, second compound 3.16 µM
[5] = curve of first compound, second compound 10 µM
[6] = second compound 0.1 µM, first compound 0.00949 µM
[7] = second compound 0.1 µM, first compound 0.03 µM
[8] = second compound 0.1 µM, first compound 0.0949 µM
[9] = second compound 0.1 µM, first compound 0.3 µM
[10] = second compound 0.316 µM, first compound 0.00949 µM
[11] = second compound 0.316 µM, first compound 0.03 µM
[12] = second compound 0.316 µM, first compound 0.0949 µM
[13] = second compound 0.316 µM, first compound 0.3 µM
[14] = second compound 1 µM, first compound 0.00949 µM
[15] = second compound 1 µM, first compound 0.03 µM
[16] = second compound 1 µM, first compound 0.0949 µM
[17] = second compound 1 µM, first compound 0.3 µM
[18] = second compound 3.16 µM, first compound 0.00949 µM
[19] = second compound 3.16 µM, first compound 0.03 µM
[20] = second compound 3.16 µM, first compound 0.0949 µM
[21] = second compound 3.16 µM, first compound 0.3 µM
[22] = second compound 10 µM, first compound 0.00949 µM
[23] = second compound 10 µM, first compound 0.03 µM
[24] = second compound 10 µM, first compound 0.0949 µM
[25] = second compound 10 µM, first compound 0.3 µM
[26] = second compound 0.1 µM, first compound 0.0316 µM
[27] = second compound 0.1 µM, first compound 0.1 µM
[28] = second compound 0.1 µM, first compound 0.316 µM
[29] = second compound 0.1 µM, first compound 1 µM
[30] = second compound 0.316 µM, first compound 0.0316 µM
[31] = second compound 0.316 µM, first compound 0.1 µM
[32] = second compound 0.316 µM, first compound 0.316 µM
[33] = second compound 0.316 µM, first compound 1 µM
[34] = second compound 1 µM, first compound 0.0316 µM
[35] = second compound 1 µM, first compound 0.1 µM
[36] = second compound 1 µM, first compound 0.316 µM
[37] = second compound 1 µM, first compound 1 µM
[38] = second compound 3.16 µM, first compound 0.0316 µM
[39] = second compound 3.16 µM, first compound 0.1 µM
[40] = second compound 3.16 µM, first compound 0.316 µM
[41] = second compound 3.16 µM, first compound 1 µM
[42] = second compound 10 µM, first compound 0.0316 µM
[43] = second compound 10 µM, first compound 0.1 µM
[44] = second compound 10 µM, first compound 0.316 µM
[45] = second compound 10 µM, first compound 1 µM
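Also: 7 day exposure to compounds.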
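For viability, T/C in this document: 100% = DMSO vehicle control viability.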

NS(=O)(=O)OCC1CC(n2ccc3c(NC4CCc5ccccc54)ncnc32)CC1O (centres undefined) + NC1CC1c1ccc(-c2cccc(O)c2)cc1
IC50 [1]: 249 nM
IC50 [2]: 303 nM
IC50 [3]: 319 nM
IC50 [4]: 397 nM
IC50 [5]: 265 nM
viability, T/C [6]: 98.8%
viability, T/C [7]: 89.8%
viability, T/C [8]: 76.8%
viability, T/C [9]: 47.3%
viability, T/C (second compound 0.1 µM, first compound 0.949 µM): 11%
viability, T/C (second compound 0.1 µM, first compound 3 µM): 4.48%
viability, T/C [10]: 104%
viability, T/C [11]: 101%
viability, T/C [12]: 82.3%
viability, T/C [13]: 53.9%
viability, T/C (second compound 0.316 µM, first compound 0.949 µM): 11.7%
viability, T/C (second compound 0.316 µM, first compound 3 µM): 3.87%
viability, T/C [14]: 116%
viability, T/C [15]: 96.8%
viability, T/C [16]: 85.1%
viability, T/C [17]: 55.9%
viability, T/C (second compound 1 µM, first compound 0.949 µM): 14.4%
viability, T/C (second compound 1 µM, first compound 3 µM): 4.26%
viability, T/C [18]: 116%
viability, T/C [19]: 98.2%
viability, T/C [20]: 84.4%
viability, T/C [21]: 69%
viability, T/C (second compound 3.16 µM, first compound 0.949 µM): 12.8%
viability, T/C (second compound 3.16 µM, first compound 3 µM): 3.82%
viability, T/C [22]: 107%
viability, T/C [23]: 90.6%
viability, T/C [24]: 73.4%
viability, T/C [25]: 52.8%
viability, T/C (second compound 10 µM, first compound 0.949 µM): 14%
viability, T/C (second compound 10 µM, first compound 3 µM): 3.25%

CC1COCCN1c1cc(-c2ccnn2C)c2ccnc(-c3ccn[nH]3)c2n1 (centres undefined) + NC1CC1c1ccc(-c2cccc(O)c2)cc1
IC50 [1]: < 3.16 nM
IC50 [2]: < 3.16 nM
IC50 [3]: < 3.16 nM
IC50 [4]: < 3.16 nM
IC50 [5]: < 3.16 nM
viability, T/C (second compound 0.1 µM, first compound 0.00316 µM): 20.3%
viability, T/C (second compound 0.1 µM, first compound 0.01 µM): 15.9%
viability, T/C [26]: 9.71%
viability, T/C [27]: 8.39%
viability, T/C [28]: 9.56%
viability, T/C [29]: 6.55%
viability, T/C (second compound 0.316 µM, first compound 0.00316 µM): 19.9%
viability, T/C (second compound 0.316 µM, first compound 0.01 µM): 16.7%
viability, T/C [30]: 10.2%
viability, T/C [31]: 8.74%
viability, T/C [32]: 8.51%
viability, T/C [33]: 6.53%
viability, T/C (second compound 1 µM, first compound 0.00316 µM): 20.7%
viability, T/C (second compound 1 µM, first compound 0.01 µM): 15.4%
viability, T/C [34]: 10.2%
viability, T/C [35]: 7.9%
viability, T/C [36]: 8.7%
viability, T/C [37]: 5.94%
viability, T/C (second compound 3.16 µM, first compound 0.00316 µM): 22.6%
viability, T/C (second compound 3.16 µM, first compound 0.01 µM): 17.3%
viability, T/C [38]: 10.9%
viability, T/C [39]: 8.9%
viability, T/C [40]: 9.05%
viability, T/C [41]: 6.86%
viability, T/C (second compound 10 µM, first compound 0.00316 µM): 18%
viability, T/C (second compound 10 µM, first compound 0.01 µM): 15.5%
viability, T/C [42]: 10.1%
viability, T/C [43]: 8.33%
viability, T/C [44]: 8.45%
viability, T/C [45]: 7.35%

CCN(c1cc(-c2ccc(CN3CCOCC3)cc2)cc(C(=O)NCc2c(C)cc(C)[nH]c2=O)c1C)C1CCOCC1
viability, T/C (compound 0.00949 µM): 106% and 93.9%
viability, T/C (compound 0.03 µM): 99.2% and 112%
viability, T/C (compound 0.0949 µM): 108% and 96.8%
viability, T/C (compound 0.3 µM): 99.2% and 104%
viability, T/C (compound 0.949 µM): 99.2% and 108%
viability, T/C (compound 3 µM): 101% and 30.2%
IC50 (curve of compound): > 3000 nM and 2200 nM

Nc1ccn(C2OC(CO)C(O)C2(F)F)c(=O)n1 (centres undefined) + NC1CC1c1ccc(-c2cccc(O)c2)cc1
IC50 [1]: 2.41 nM
IC50 [2]: 2.18 nM
IC50 [3]: 2.52 nM
IC50 [4]: 2.31 nM
IC50 [5]: 2.34 nM
viability, T/C (second compound 0.1 µM, first compound 0.000949 µM): 112%
viability, T/C (second compound 0.1 µM, first compound 0.003 µM): 35.5%
viability, T/C [6]: 14.2%
viability, T/C [7]: 11.6%
viability, T/C [8]: 12.2%
viability, T/C [9]: 13.4%
viability, T/C (second compound 0.316 µM, first compound 0.000949 µM): 103%
viability, T/C (second compound 0.316 µM, first compound 0.003 µM): 29.9%
viability, T/C [10]: 14.5%
viability, T/C [11]: 12%
viability, T/C [12]: 12.2%
viability, T/C [13]: 12.8%
viability, T/C (second compound 1 µM, first compound 0.000949 µM): 116%
viability, T/C (second compound 1 µM, first compound 0.003 µM): 38.4%
viability, T/C [14]: 14.9%
viability, T/C [15]: 12.2%
viability, T/C [16]: 11.9%
viability, T/C [17]: 13.6%
viability, T/C (second compound 3.16 µM, first compound 0.000949 µM): 103%
viability, T/C (second compound 3.16 µM, first compound 0.003 µM): 34.3%
viability, T/C [18]: 15.8%
viability, T/C [19]: 11.7%
viability, T/C [20]: 13.8%
viability, T/C [21]: 13.4%
viability, T/C (second compound 10 µM, first compound 0.000949 µM): 98.2%
viability, T/C (second compound 10 µM, first compound 0.003 µM): 36.7%
viability, T/C [22]: 15.5%
viability, T/C [23]: 11.2%
viability, T/C [24]: 12.7%
viability, T/C [25]: 13.5%

O=C(c1cc(Cc2n[nH]c(=O)c3ccccc23)ccc1F)N1CCN(C(=O)C2CC2)CC1 + NC1CC1c1ccc(-c2cccc(O)c2)cc1
IC50 [1]: > 10000 nM
IC50 [2]: > 10000 nM
IC50 [3]: > 10000 nM
IC50 [4]: > 10000 nM
IC50 [5]: > 10000 nM
viability, T/C [26]: 98.8%
viability, T/C [27]: 89.7%
viability, T/C [28]: 95.4%
viability, T/C [29]: 103%
viability, T/C (second compound 0.1 µM, first compound 3.16 µM): 122%
viability, T/C (second compound 0.1 µM, first compound 10 µM): 107%
viability, T/C [30]: 101%
viability, T/C [31]: 101%
viability, T/C [32]: 110%
viability, T/C [33]: 92.6%
viability, T/C (second compound 0.316 µM, first compound 3.16 µM): 121%
viability, T/C (second compound 0.316 µM, first compound 10 µM): 98.5%
viability, T/C [34]: 106%
viability, T/C [35]: 92.7%
viability, T/C [36]: 97.4%
viability, T/C [37]: 95.1%
viability, T/C (second compound 1 µM, first compound 3.16 µM): 120%
viability, T/C (second compound 1 µM, first compound 10 µM): 106%
viability, T/C [38]: 84.6%
viability, T/C [39]: 101%
viability, T/C [40]: 95.8%
viability, T/C [41]: 103%
viability, T/C (second compound 3.16 µM, first compound 3.16 µM): 115%
viability, T/C (second compound 3.16 µM, first compound 10 µM): 108%
viability, T/C [42]: 87.9%
viability, T/C [43]: 92%
viability, T/C [44]: 93.8%
viability, T/C [45]: 85.4%
viability, T/C (second compound 10 µM, first compound 3.16 µM): 120%
viability, T/C (second compound 10 µM, first compound 10 µM): 98.5%

CCc1c2c(nc3ccc(O)cc13)-c1cc3c(c(=O)n1C2)COC(=O)[C@]3(O)CC
viability, T/C (compound 0.000949 µM): 48.5% and 39.8%
viability, T/C (compound 0.003 µM): 35.5% and 27%
viability, T/C (compound 0.00949 µM): 31.5% and 23.3%
viability, T/C (compound 0.03 µM): 22% and 4.12%
viability, T/C (compound 0.0949 µM): 2.19% and 0.43%
viability, T/C (compound 0.3 µM): 0.75% and 0.28%
IC50 (curve of compound): < 0.949 nM
